Results as given in US20070128217A1 (priority 2003, published 2007).

Columns and labels:
[1] = system: control sera (pooled serum of ten healthy LUMC hospital workers; commercial negative donor pooled serum from the Dutch bloodbank); format: binding, human; set-up: Binding of Control serum LUMC to linear peptides / Binding of Control serum Blood-bank to linear peptides / Binding of Control serum LUMC to looped peptides / Binding of Control Serum Blood-Bank to Looped peptides / Binding of Control serum LUMC to linear peptides of the protein M of SARS-CoV Urbani / Binding of Control serum Blood-bank to linear peptides of the protein M of SARS-CoV Urbani / Binding of Control serum LUMC to looped peptides of the protein M of SARS-CoV Urbani / Binding of Control Serum Blood-Bank to Looped peptides of the protein M of SARS-CoV Urbani: unit not given here
[2] = system: antibodies in sera from SARS patients (sera 1a, 1b, 2, 6, 37, 62, London, SARS-yellow, SARS-green); format: binding, human; set-up: Binding of serum 6 to linear peptides of protein X1 of SARS-CoV Urbani / Binding of serum 37 to linear peptides of protein X1 of SARS-CoV Urbani / Binding of serum 6 to looped/cyclic peptide (PEPSCAN-ELISA) / Binding of serum 37 to looped/cyclic peptide (PEPSCAN-ELISA) / Binding of serum 37 to looped/cyclic peptides of protein X1 of SARS-CoV Urbani / Binding of serum 6 to linear peptides of protein X2 / Binding of serum 37 to linear peptides of protein X2 / Binding of serum 37 to looped/cyclic peptides of protein X2 of SARS-CoV Urbani / Binding of serum 6 to linear peptides of protein M of SARS-CoV Urbani / Binding of serum 37 to linear peptides of protein M of SARS-CoV Urbani / Binding of serum 6 to looped/cyclic peptides of protein M of SARS-CoV Urbani / Binding of serum 37 to looped/cyclic peptides of protein M of SARS-CoV Urbani / Binding of serum 6 to linear peptides of protein X3 of SARS-CoV Urbani / Binding of serum 37 to linear peptides of protein X3 of SARS-CoV Urbani / Binding of serum 37 to looped/cyclic peptides of protein X3 of SARS-CoV Urbani / Binding of serum 6 to linear peptides of protein X4 of SARS-CoV Urbani / Binding of serum 37 to linear peptides of protein X4 of SARS-CoV Urbani / Binding of serum 37 to looped/cyclic peptides of protein X4 of SARS-CoV Urbani / Binding of serum 6 to linear peptides of protein X5 of SARS-CoV Urbani / Binding of serum 37 to linear peptides of protein X5 of SARS-CoV Urbani / Binding of serum 37 to looped/cyclic peptides of protein X5 of SARS-CoV Urbani / Binding of serum 6 to linear peptides of protein N of SARS-CoV Urbani / Binding of serum 37 to linear peptides of protein N of SARS-CoV Urbani / Binding of serum 6 to linear peptide (PEPSCAN-ELISA) / Binding of serum 1a to looped/cyclic peptides of protein N of SARS-CoV Urbani / Binding of serum 1b to looped/cyclic peptides of protein N of SARS-CoV Urbani / Binding of serum 2 to looped/cyclic peptides of protein N of SARS-CoV Urbani / Binding of serum 6 to looped/cyclic peptides of protein N of SARS-CoV Urbani / Binding of serum 37 to looped/cyclic peptides of protein N of SARS-CoV Urbani / Binding of serum 62 to looped/cyclic peptides of protein N of SARS-CoV Urbani / Binding of serum London to looped/cyclic peptides of protein N of SARS-CoV Urbani / Binding of serum SARS-green to looped/cyclic peptides of protein N of SARS-CoV Urbani: unit not given here
[3] = system: rabbit serum obtained by immunizing a rabbit with the SARS-CoV strain Frankfurt 1; format: binding; set-up: Binding of a rabbit serum to linear peptides / Binding of a rabbit serum to looped peptides / Rabbit serum linear peptides / Rabbit serum looped peptides / Binding of a rabbit serum to linear peptides of protein N of SARS-CoV Urbani (Rabbit serum linear peptides) / Binding of a rabbit serum to looped/cyclic peptides of protein N of SARS-CoV Urbani (Rabbit serum looped peptides): unit not given here

## AILTALRLCAYCCNI
[1]
  Binding of Control Serum Blood-Bank to Looped peptides: 0.6
  Binding of Control serum Blood-bank to linear peptides: 0.6
  Binding of Control serum LUMC to linear peptides: 0.6
  Binding of Control serum LUMC to looped peptides: 0.8
[2]
  Binding of serum 1a to linear peptides of protein E of SARS-CoV Urbani: 0.6
  Binding of serum 1a to looped/cyclic peptides of protein E of SARS-CoV Urbani: 0.8
  Binding of serum 1b to linear peptides of protein E of SARS-CoV Urbani: 0.4
  Binding of serum 1b to looped/cyclic peptides of protein E of SARS-CoV Urbani: 0.6
  Binding of serum 2 to linear peptides of protein E of SARS-CoV Urbani: 0.5
  Binding of serum 2 to looped/cyclic peptides of protein E of SARS-CoV Urbani: 0.7
  Binding of serum 6 to linear peptides of protein E of SARS-CoV Urbani: 0.3
  Binding of serum 6 to looped/cyclic peptides of protein E of SARS-CoV Urbani: 0.5
  Binding of serum 37 to linear peptides of protein E of SARS-CoV Urbani: 0.4
  Binding of serum 37 to looped/cyclic peptides of protein E of SARS-CoV Urbani: 0.7
  Binding of serum 62 to linear peptides of protein E of SARS-CoV Urbani: 0.4
  Binding of serum 62 to looped/cyclic peptides of protein E of SARS-CoV Urbani: 0.8
  Binding of serum London to linear peptides of protein E of SARS-CoV Urbani: 0.5
  Binding of serum London to looped/cyclic peptides of protein E of SARS-CoV Urbani: 0.4
  Binding of serum SARS-green to linear peptides of protein E of SARS-CoV Urbani: 0.5
  Binding of serum SARS-green to looped/cyclic peptides of protein E of SARS-CoV Urbani: 0.5
  Binding of serum SARS-yellow to linear peptides of protein E of SARS-CoV Urbani: 0.1
  Binding of serum SARS-yellow to looped/cyclic peptides of protein E of SARS-CoV Urbani: 0.9
[3]
  Binding of a rabbit serum to linear peptides: 0.2
  Binding of a rabbit serum to looped peptides: 0.6

## ETGTLIVNSVLLFLA
[1]
  Binding of Control Serum Blood-Bank to Looped peptides: 0.5
  Binding of Control serum Blood-bank to linear peptides: 0.5
  Binding of Control serum LUMC to linear peptides: 0.8
  Binding of Control serum LUMC to looped peptides: 0.5
[2]
  Binding of serum 1a to linear peptides of protein E of SARS-CoV Urbani: 0.8
  Binding of serum 1a to looped/cyclic peptides of protein E of SARS-CoV Urbani: 0.5
  Binding of serum 1b to linear peptides of protein E of SARS-CoV Urbani: 0.7
  Binding of serum 1b to looped/cyclic peptides of protein E of SARS-CoV Urbani: 0.4
  Binding of serum 2 to linear peptides of protein E of SARS-CoV Urbani: 0.8
  Binding of serum 2 to looped/cyclic peptides of protein E of SARS-CoV Urbani: 0.5
  Binding of serum 6 to linear peptides of protein E of SARS-CoV Urbani: 0.5
  Binding of serum 6 to looped/cyclic peptides of protein E of SARS-CoV Urbani: 0.4
  Binding of serum 37 to linear peptides of protein E of SARS-CoV Urbani: 0.4
  Binding of serum 37 to looped/cyclic peptides of protein E of SARS-CoV Urbani: 0.5
  Binding of serum 62 to linear peptides of protein E of SARS-CoV Urbani: 0.4
  Binding of serum 62 to looped/cyclic peptides of protein E of SARS-CoV Urbani: 0.7
  Binding of serum London to linear peptides of protein E of SARS-CoV Urbani: 0.8
  Binding of serum London to looped/cyclic peptides of protein E of SARS-CoV Urbani: 0.4
  Binding of serum SARS-green to linear peptides of protein E of SARS-CoV Urbani: 0.6
  Binding of serum SARS-green to looped/cyclic peptides of protein E of SARS-CoV Urbani: 0.3
  Binding of serum SARS-yellow to linear peptides of protein E of SARS-CoV Urbani: 0.4
  Binding of serum SARS-yellow to looped/cyclic peptides of protein E of SARS-CoV Urbani: 0.5
[3]
  Binding of a rabbit serum to linear peptides: 0.3
  Binding of a rabbit serum to looped peptides: 0.0

## FLAFVVFLLVTLAIL
[1]
  Binding of Control Serum Blood-Bank to Looped peptides: 0.8
  Binding of Control serum Blood-bank to linear peptides: 0.4
  Binding of Control serum LUMC to linear peptides: 0.4
  Binding of Control serum LUMC to looped peptides: 0.6
[2]
  Binding of serum 1a to linear peptides of protein E of SARS-CoV Urbani: 0.7
  Binding of serum 1a to looped/cyclic peptides of protein E of SARS-CoV Urbani: 0.5
  Binding of serum 1b to linear peptides of protein E of SARS-CoV Urbani: 0.5
  Binding of serum 1b to looped/cyclic peptides of protein E of SARS-CoV Urbani: 0.5
  Binding of serum 2 to linear peptides of protein E of SARS-CoV Urbani: 0.2
  Binding of serum 2 to looped/cyclic peptides of protein E of SARS-CoV Urbani: 0.6
  Binding of serum 6 to linear peptides of protein E of SARS-CoV Urbani: 0.4
  Binding of serum 6 to looped/cyclic peptides of protein E of SARS-CoV Urbani: 0.5
  Binding of serum 37 to linear peptides of protein E of SARS-CoV Urbani: 0.3
  Binding of serum 37 to looped/cyclic peptides of protein E of SARS-CoV Urbani: 0.6
  Binding of serum 62 to linear peptides of protein E of SARS-CoV Urbani: 0.1
  Binding of serum 62 to looped/cyclic peptides of protein E of SARS-CoV Urbani: 0.7
  Binding of serum London to linear peptides of protein E of SARS-CoV Urbani: 0.4
  Binding of serum London to looped/cyclic peptides of protein E of SARS-CoV Urbani: 0.4
  Binding of serum SARS-green to linear peptides of protein E of SARS-CoV Urbani: 0.7
  Binding of serum SARS-green to looped/cyclic peptides of protein E of SARS-CoV Urbani: 0.4
  Binding of serum SARS-yellow to linear peptides of protein E of SARS-CoV Urbani: 0.3
  Binding of serum SARS-yellow to looped/cyclic peptides of protein E of SARS-CoV Urbani: 0.5
[3]
  Binding of a rabbit serum to linear peptides: 0.0
  Binding of a rabbit serum to looped peptides: 0.2

## FNPETNILLNVPLRG
[1]
  Binding of Control Serum Blood-Bank to Looped peptides of the protein M of SARS-CoV Urbani: 0.8
  Binding of Control serum Blood-bank to linear peptides of the protein M of SARS-CoV Urbani: 0.6
  Binding of Control serum LUMC to linear peptides of the protein M of SARS-CoV Urbani: 0.7
  Binding of Control serum LUMC to looped peptides of the protein M of SARS-CoV Urbani: 0.9
[2]
  Binding of serum 1a to linear peptides of protein M of SARS-CoV Urbani: 0.8
  Binding of serum 1a to looped/cyclic peptides of protein M of SARS-CoV Urbani: 0.8
  Binding of serum 1b to linear peptides of protein M of SARS-CoV Urbani: 0.6
  Binding of serum 1b to looped/cyclic peptides of protein M of SARS-CoV Urbani: 0.8
  Binding of serum 2 to linear peptides of protein M of SARS-CoV Urbani: 0.5
  Binding of serum 2 to looped/cyclic peptides of protein M of SARS-CoV Urbani: 0.7
  Binding of serum 6 to linear peptides of protein M of SARS-CoV Urbani: 0.5
  Binding of serum 6 to looped/cyclic peptides of protein M of SARS-CoV Urbani: 0.7
  Binding of serum 37 to linear peptides of protein M of SARS-CoV Urbani: 0.5
  Binding of serum 37 to looped/cyclic peptides of protein M of SARS-CoV Urbani: 0.9
  Binding of serum 62 to linear peptides of protein M of SARS-CoV Urbani: 0.4
  Binding of serum 62 to looped/cyclic peptides of protein M of SARS-CoV Urbani: 0.8
  Binding of serum London to linear peptides of protein M of SARS-CoV Urbani: 0.3
  Binding of serum London to looped/cyclic peptides of protein M of SARS-CoV Urbani: 0.3
  Binding of serum SARS-green to linear peptides of protein M of SARS-CoV Urbani: 0.5
  Binding of serum SARS-green to looped/cyclic peptides of protein M of SARS-CoV Urbani: 0.3
  Binding of serum SARS-yellow to linear peptides of protein M of SARS-CoV Urbani: 0.2
  Binding of serum SARS-yellow to looped/cyclic peptides of protein M of SARS-CoV Urbani: 0.8
[3]
  Rabbit serum linear peptides: 0.0
  Rabbit serum looped peptides: 0.4

## FVVFLLVTLAILTAL
[1]
  Binding of Control Serum Blood-Bank to Looped peptides: 0.7
  Binding of Control serum Blood-bank to linear peptides: 0.5
  Binding of Control serum LUMC to linear peptides: 0.5
  Binding of Control serum LUMC to looped peptides: 0.6
[2]
  Binding of serum 1a to linear peptides of protein E of SARS-CoV Urbani: 0.6
  Binding of serum 1a to looped/cyclic peptides of protein E of SARS-CoV Urbani: 0.4
  Binding of serum 1b to linear peptides of protein E of SARS-CoV Urbani: 0.4
  Binding of serum 1b to looped/cyclic peptides of protein E of SARS-CoV Urbani: 0.4
  Binding of serum 2 to linear peptides of protein E of SARS-CoV Urbani: 0.5
  Binding of serum 2 to looped/cyclic peptides of protein E of SARS-CoV Urbani: 0.4
  Binding of serum 6 to linear peptides of protein E of SARS-CoV Urbani: 0.3
  Binding of serum 6 to looped/cyclic peptides of protein E of SARS-CoV Urbani: 0.6
  Binding of serum 37 to linear peptides of protein E of SARS-CoV Urbani: 0.4
  Binding of serum 37 to looped/cyclic peptides of protein E of SARS-CoV Urbani: 0.5
  Binding of serum 62 to linear peptides of protein E of SARS-CoV Urbani: 0.3
  Binding of serum 62 to looped/cyclic peptides of protein E of SARS-CoV Urbani: 0.6
  Binding of serum London to linear peptides of protein E of SARS-CoV Urbani: 0.5
  Binding of serum London to looped/cyclic peptides of protein E of SARS-CoV Urbani: 0.4
  Binding of serum SARS-green to linear peptides of protein E of SARS-CoV Urbani: 0.5
  Binding of serum SARS-green to looped/cyclic peptides of protein E of SARS-CoV Urbani: 0.4
  Binding of serum SARS-yellow to linear peptides of protein E of SARS-CoV Urbani: 0.2
  Binding of serum SARS-yellow to looped/cyclic peptides of protein E of SARS-CoV Urbani: 0.6
[3]
  Binding of a rabbit serum to linear peptides: 0.2
  Binding of a rabbit serum to looped peptides: 0.2
